Results published in ChEMBL document CHEMBL3217589, “Spiro[[1]benzothiophen-4,4-piperidines] carba analogs of potent 1 ligands” (Medchemcomm, 2013).

Key:
[1] = Selectivity ratio of Ki for rat liver membrane sigma-2 receptor to Ki for guinea pig brain cortex sigma-1 receptor
[2] = Displacement of [3H]-di-o-tolylguanidine from sigma-2 receptor in rat liver membranes after 120 mins by scintillation counting analysis; type: cell membranes, Membrane
[3] = target: Sigma non-opioid intracellular receptor 1 (Cavia porcellus, UniProt Q60492); test: Displacement of [3H]-(+)-pentazocine from sigma-1 receptor in guinea pig brain cortex after 120 mins by scintillation counting analysis; type: tissue-based, Cerebral cortex
Sigma non-opioid intracellular receptor 1 (Cavia porcellus, UniProt Q60492), sequence (Q60492 whole entry): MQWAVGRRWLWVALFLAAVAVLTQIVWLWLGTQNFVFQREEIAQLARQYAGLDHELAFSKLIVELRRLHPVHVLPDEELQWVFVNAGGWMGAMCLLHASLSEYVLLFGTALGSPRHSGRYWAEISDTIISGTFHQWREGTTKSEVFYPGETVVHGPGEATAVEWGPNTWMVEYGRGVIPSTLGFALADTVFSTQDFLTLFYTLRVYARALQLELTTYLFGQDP

[4] = target: Sigma non-opioid intracellular receptor 1 (Homo sapiens, UniProt Q99720); test: Binding affinity to sigma-1 receptor (unknown origin)
Sigma non-opioid intracellular receptor 1 (Homo sapiens, UniProt Q99720), sequence (Q99720 whole entry): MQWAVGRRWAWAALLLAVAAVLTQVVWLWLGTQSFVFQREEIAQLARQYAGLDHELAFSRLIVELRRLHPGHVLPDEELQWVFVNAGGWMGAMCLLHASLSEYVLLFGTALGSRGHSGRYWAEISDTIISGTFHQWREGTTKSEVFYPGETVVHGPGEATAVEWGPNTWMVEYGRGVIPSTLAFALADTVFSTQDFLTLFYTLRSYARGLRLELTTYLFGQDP

SMILES | Ratio Ki [1] | Ki [2] | Ki [3] | Ki [4]
c1ccc(CCCN2CCC3(CCCc4sccc43)CC2)cc1 | 4 | 186 nM | 46 nM | 
c1ccc(CCN2CCC3(CCCc4sccc43)CC2)cc1 | 0.4 | 105 nM | 277 nM | 
CCCCN1CCC2(CCCc3sccc32)CC1 | 8 | 48 nM | 6.3 nM | 
CN(C)CCC1OCCc2c1cnn2-c1ccccc1 (stereo not given) |  |  |  | 24 nM
c1ccc(CN2CCC3(CCCc4sccc43)CC2)cc1 | 16 | 172 nM | 10.5 nM | 
c1ccc(CN2CCC3(CCCc4sccc43)C2)cc1 (stereo not given) | 4 | 130 nM | 29 nM | 
c1cc2c(s1)CCCC21CCN(CC2CCCCC2)CC1 | 5 | 23 nM | 4.3 nM | 
c1ccc(N2CCN(CCC3OCCc4c3cnn4-c3ccccc3)CC2)cc1 (stereo not given) |  |  |  | 2.9 nM
